This is an account of results in PubChem BioAssay (NCI).

Among the test systems are 786-0 renal; BT-549 breast; CAKI-1 renal; CCRF-CEM leukemia; DU-145 prostate; HOP-92 NSCLC; MDA-MB-435; SK-MEL-28 melanoma; SR leukemia; SW-620 colon.
Test in all cases: NCI tumour cell line growth inhibition, 48 h

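All cell lines were grown in 96-well plates and treated with compound for 48 hours. Abbreviation: GI50, concentration required for 50% inhibition of growth. TGI: total growth inhibition.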 A value given as a limit tells only on which side of the number the result lay.

Consider `O=C(CCCN1CCC(C(O)c2ccc(F)cc2)CC1)c1ccc(F)cc1` (stereo not drawn), for which the TGI came out at 96.6 µM in the test on 786-0 renal; 93 µM in the test with BT-549 breast; 114 µM in the test with CAKI-1 renal; 228 µM in the test on CCRF-CEM leukemia; 118 µM with DU-145 prostate; 60.4 µM in the test with HOP-92 NSCLC. Besides, the TGI in the test on MDA-MB-435 is 109 µM; in the test on SK-MEL-28 melanoma, 118 µM; in the test with SR leukemia it was 201 µM; with SW-620 colon it was 123 µM.
As for `CCN1C(=NCCO)NS(=O)(=O)c2ccccc21`, the TGI in the test with 786-0 renal, in the test on BT-549 breast, in the test with CAKI-1 renal, in the test on CCRF-CEM leukemia, in the test with DU-145 prostate and with HOP-92 NSCLC was more than 100 µM each time. For the same molecule, the TGI in the test on MDA-MB-435, with SK-MEL-28 melanoma, with SR leukemia and with SW-620 colon was more than 100 µM each time.
Consider `Cc1cc(Cl)ccc1C(=O)c1ccc2ccccc2c1C(=O)O`, for which the TGI in the test with 786-0 renal, with BT-549 breast, in the test on CAKI-1 renal, with CCRF-CEM leukemia, in the test on DU-145 prostate and with HOP-92 NSCLC was more than 100 µM throughout. Besides, the TGI in the test on MDA-MB-435, in the test with SK-MEL-28 melanoma, in the test on SR leukemia and in the test on SW-620 colon was more than 100 µM in each case.
As to `CCOC(=O)Nc1cc2ccccc2c(N=Nc2ccccc2)c1O`, the TGI in the test with 786-0 renal, in the test with BT-549 breast, in the test with CAKI-1 renal, with CCRF-CEM leukemia, in the test with DU-145 prostate and with HOP-92 NSCLC was more than 100 µM throughout. Moreover, the TGI with MDA-MB-435, in the test with SK-MEL-28 melanoma, in the test on SR leukemia and in the test with SW-620 colon was more than 100 µM in each case.
Consider `Cc1cc(O)c(C2=NN(c3ccc(S(N)(=O)=O)cc3)C(/C=C/c3ccccc3)C2)cc1Cl` (stereo not drawn), for which the GI50 in the test on 786-0 renal is 4.09 µM; in the test on BT-549 breast, 6.12 µM; in the test on CAKI-1 renal, 15.3 µM; in the test with CCRF-CEM leukemia, 17.7 µM; in the test on DU-145 prostate it was 14.1 µM; with HOP-92 NSCLC, 2.36 µM. Moreover, the GI50 was 8.87 µM in the test on MDA-MB-435, 10.9 µM with SK-MEL-28 melanoma, 12.7 µM in the test with SR leukemia and 11.7 µM with SW-620 colon. For the same molecule, the TGI in the test with 786-0 renal stood at 12.5 µM; with BT-549 breast it was 21.3 µM; with CAKI-1 renal, 87.7 µM; in the test on CCRF-CEM leukemia it was 50 µM; in the test on DU-145 prostate, 38.6 µM; with HOP-92 NSCLC it was 8.48 µM. In addition, the TGI in the test on MDA-MB-435 was determined as 24 µM; in the test with SK-MEL-28 melanoma, 23.8 µM; in the test on SR leukemia, 33.8 µM; in the test on SW-620 colon, 31.3 µM.
`CC(C)(C)OC(=O)NCc1cccc(N=C=S)c1`: the GI50 in the test on 786-0 renal is 21.6 µM; with BT-549 breast it was 19.2 µM; with CAKI-1 renal it was 20.5 µM; in the test with CCRF-CEM leukemia, 21 µM; in the test on DU-145 prostate, 22.7 µM; in the test on HOP-92 NSCLC, 14.6 µM. For the same molecule, the GI50 with MDA-MB-435 was 18.5 µM; in the test on SK-MEL-28 melanoma, 16.9 µM; in the test with SR leukemia, 20 µM; in the test on SW-620 colon it was 18.9 µM. In addition, the TGI in the test on 786-0 renal was 44.1 µM; in the test with BT-549 breast, 44.2 µM; in the test with CAKI-1 renal, 53.9 µM; with CCRF-CEM leukemia, 55.9 µM; in the test on DU-145 prostate, 59.2 µM; in the test on HOP-92 NSCLC it was 62.2 µM. Also, the TGI was 63.1 µM in the test with MDA-MB-435, 37.7 µM with SK-MEL-28 melanoma, more than 81.9 µM in the test on SR leukemia and 47.7 µM in the test on SW-620 colon.
For `CC(=O)/C=C/c1ccc(OCc2ccc(Cl)cc2)cc1`, the GI50 in the test on 786-0 renal is 718 µM; in the test with BT-549 breast it was 136 µM; in the test on CCRF-CEM leukemia, 577 µM; in the test on DU-145 prostate, 636 µM; with HOP-92 NSCLC, 372 µM; in the test on MDA-MB-435, 228 µM. Moreover, the values for the GI50 in the test on SK-MEL-28 melanoma, with SR leukemia and in the test with SW-620 colon were 400 µM, 564 µM and more than 1000 µM, respectively. Moreover, the TGI with 786-0 renal, with BT-549 breast, with CCRF-CEM leukemia, in the test with DU-145 prostate, in the test with HOP-92 NSCLC and in the test on MDA-MB-435 was more than 1000 µM each time. For the same molecule, the TGI in the test with SK-MEL-28 melanoma, in the test with SR leukemia and with SW-620 colon was more than 1000 µM in each case.
On to `CC(=O)Nc1n[n+]([O-])c2cc(C)ccc2[n+]1[O-]`, for which the TGI was 17.5 µM with 786-0 renal; 14.2 µM with BT-549 breast; 12 µM in the test with CAKI-1 renal; more than 47.4 µM with CCRF-CEM leukemia; 18.4 µM in the test on DU-145 prostate; 7.29 µM with HOP-92 NSCLC. The TGI was 20.8 µM with MDA-MB-435, 44.2 µM in the test with SK-MEL-28 melanoma, more than 100 µM in the test on SR leukemia and 17.5 µM with SW-620 colon.
As for `CN(C)c1ccc(/C=N/S(=O)(=O)c2ccc(-n3c(-c4ccccc4)nc4c(Br)cc(Br)cc4c3=O)cc2)cc1`, the GI50 in the test on 786-0 renal was 55.7 µM; with BT-549 breast, 30.6 µM; with CAKI-1 renal, 47.5 µM; in the test on CCRF-CEM leukemia, 3.22 µM; with DU-145 prostate, 32.6 µM; in the test on HOP-92 NSCLC, 22.7 µM. Further, the GI50 in the test with MDA-MB-435 is 42 µM; with SK-MEL-28 melanoma, 43.6 µM; in the test with SR leukemia, 1 µM; in the test with SW-620 colon, 46.2 µM. The TGI in the test with 786-0 renal was more than 100 µM; in the test on BT-549 breast, more than 68.8 µM; in the test on CAKI-1 renal it was more than 100 µM; in the test on CCRF-CEM leukemia it was more than 100 µM; in the test on DU-145 prostate, more than 90.2 µM; in the test with HOP-92 NSCLC, 71.6 µM. Further, the TGI in the test on MDA-MB-435 was more than 90.7 µM; in the test with SK-MEL-28 melanoma, more than 100 µM; in the test on SR leukemia, 14.9 µM; in the test with SW-620 colon, more than 100 µM.
For `CN(CCCCCl)P(=O)(OCc1ccc([N+](=O)[O-])o1)OCC1OC(n2cnc([N+](=O)[O-])c2N)C(O)C1O` (stereo not drawn), the GI50 in the test with 786-0 renal, in the test on BT-549 breast, in the test on CAKI-1 renal, with CCRF-CEM leukemia, with DU-145 prostate and in the test with HOP-92 NSCLC was more than 100 µM each time. Besides, the GI50 in the test on MDA-MB-435 is more than 100 µM; in the test on SK-MEL-28 melanoma, more than 100 µM; in the test on SR leukemia it was 0.924 µM; in the test on SW-620 colon, more than 100 µM. The TGI with 786-0 renal, in the test with BT-549 breast, in the test on CAKI-1 renal, in the test on CCRF-CEM leukemia, in the test on DU-145 prostate and with HOP-92 NSCLC was more than 100 µM throughout. Besides, the TGI with MDA-MB-435, in the test with SK-MEL-28 melanoma, in the test on SR leukemia and in the test with SW-620 colon was more than 100 µM throughout.
